Patent US20110003796A1, “METHOD FOR THE TREATMENT OF PSYCHIC DISORDERS” (Consejo Nacional de Investigaciones Cientificas y Tecnicas …, priority 2009, published 2011)
“Also recorded” adds a separate entry of the source. Where a name gives a salt, the structure may show the parent alone.

What was measured:
rats [1] = assay: Open field test (locomotor activity); type: in vivo, rat (male Wistar)
Protocol: These studies were performed exactly the same way as the studies of FST had been carried. All rats that experimented the first day of FST (pre-test), received the different treatments during 16 days. On day 17 they were placed in the cage of open field (60×60×60 cm) with the floor divided in squares (15×15 cm). The tests were performed between 14:00 and 17:00 hours, illuminated with an electric bulb of 75 W and placed 75 cm above the floor of the cage, in a quiet room. The locomotion was measured by the number of squares they enter with the four legs (counts), over a period of 5 minutes. After withdrawing the animal, the open field was carefully cleaned with a damp wipe.

rats [2] = assay: Forced swimming test (FST); type: in vivo, rat (male Wistar); conditions: for climbing in FST / immobility in FST / swimming in FST: 16 days
Protocol: (§1) The experiments were carried out with male Wistar rats with a body weight of 200-386 g. Rats were kept in a cycle of 12 hours of light (8:00 a 20:00) and 12 hours of darkness with free access to water and food except during the tests. The rats were divided in four groups, housed in individual polyethylene cages of with three or four rats each (55×38×30 cm) and fed with standard diet for the controls (C) or diet supplemented with omega-3 fatty acids (ω3). The animals were used only once in each test. All tests were performed in agreement with the Guidelines for the Care and Use of Laboratory Animals provided by National Institutes of Health of United States of America.
The Fluoxetine Hydrochloride (FLX) and mirtazapine (MTZ) were administered intra-peritoneally (IP) in a volume equivalent to 1 cc/kg and were freshly prepared each morning. The FLX was dissolved in distilled water and MZT was solubilized in isotonic saline (0.9% NaCl) plus three or four drops of glacial acetic acid to dissolve this solution. […] All control rats were given injections of saline.
In all cases antidepressant drugs or the saline solution were given once a day for 16 days, the final injection was given 24 hours before the test session (FIGS. 6 and 18).
The omega-3 fatty acids were given as diet supplement in the food enriched with salmon oil for 16 days. Each 1000 mg of highly concentrated salmon oil contains about 30% of omega-3, from which 17% is EPA and 13% is DHA; therefore there were 40 mg of omega-3 fatty acids per gram of enriched food. Rats of the ω3 group received a dose of about 0.72 g/kg/day of omega-3 fatty acids.
The swimming sessions were carried out placing the rats in Plexiglas cylinders (46 cm of height and 20 cm of diameter) which had been previously filled with water (23-25° C.) to 30 cm from the bottom. All swimming sessions were performed between 12:00 and 18:00 hours.
Two sessions were performed: an initial pre-test for 15 minutes followed by a 5-minute test, after 16 days. The drugs were given between both sessions.
Rats were studied at 5-second intervals during the session of forced swimming session. At each interval of 5 seconds, the predominant behavior was assigned to one of the following categories: (1) immobility: flotation in water without fighting, only doing the necessary movements to keep the head out of the water; (2) swimming, making the movements of active swimming, plus the ones necessary to keep simply the head out of the water (i.e., moving around the cylinder); and (3) climbing, making active movements with fore hints out of the water, usually against walls. The scoring for each behavior was expressed as the total of records per session of 5 minutes.

[3] = Body weight gain during chronic treatment; type: in vivo, rat (male Wistar)
Protocol: Tests were performed to analyze the body weight gain during chronic treatments with antidepressants and/or omega-3 fatty acids.
as §1

rats [4] = conditions: cited from earlier work; for antidepressant effect in prior studies: FLX 1 mg/kg, MTZ 1 mg/kg; for effect on the FST in prior studies: FLX 10 mg/kg, MTZ 20 mg/kg, similar test conditions
[5] = fluoxetine 10 mg/kg ip and/or omega-3 0.72 g/kg
[6] = mirtazapine 20 mg/kg ip and/or omega-3 0.72 g/kg

With `CNCCC(Oc1ccc(C(F)(F)F)cc1)c1ccccc1` (stereo not shown) [fluoxetine, Fluoxetine Hydrochloride] the “spontaneous locomotor activity in open field” value (rats [1]; fluoxetine 1 mg/kg and/or omega-3 0.72 g/kg) was “None of these treatments with antidepressant effects in the FST affected the levels of activity”, the “spontaneous locomotor activity in open field test” value (rats [1]; fluoxetine 10 mg/kg and/or omega-3 0.72 g/kg) was “None of these treatments with antidepressant effects in the FST affected the activity levels” and the “effect of treatment on behaviors in FST” value (rats [2]; fluoxetine 1 mg/kg ip alone, two-factor ANOVA) was “no effect of treatment with FLX”. The “climbing in FST” value (rats [2]; [5]) was “without modifying the behavioral levels of climbing”, the “immobility in FST” value (rats [2]; [5]) was “reduces immobility” and the “swimming in FST” value (rats [2]; [5]) was “increases swimming”. For the same compound, the “effect of treatment on the FST” value (rats [2]; fluoxetine sub-optimal doses lower than 1 mg/kg (0.1 and 0.5 mg/kg) alone) was “did not have any effect on the FST”, the body weight ([3]; fluoxetine 10 mg/kg and/or omega-3 0.72 g/kg, vs control group) was “Body weight was significantly lower” and the body weight gain ([3]; fluoxetine sub-optimal dose 1 mg/kg) was “Body weight gain was reduced although in a lesser extend”. The “antidepressant effect in prior studies” value (rats [4]) was “not showing an antidepressant effect” and the “effect on the FST in prior studies” value (rats [4]) was “produce a more robust effect on the FST”.

With `CN1CCN2c3ncccc3Cc3ccccc3C2C1` (stereo not shown) [mirtazapine] the “spontaneous locomotor activity in open field” value (rats [1]; mirtazapine 1 mg/kg and/or omega-3 0.72 g/kg/day) was “did not interfere with the locomotor activity”, the “spontaneous locomotor activity in open field test” value (rats [1]; mirtazapine 20 mg/kg and/or omega-3 0.72 g/kg) was “did not interfere with the responses of locomotor activity” and the “climbing in FST” value (rats [2]; [6]) was “increase”. The “immobility in FST” value (rats [2]; [6]) was “significantly reduced the immobility”, the “swimming in FST” value (rats [2]; [6]) was “corresponding increase in the swimming” and the “time of immobility in FST” value (rats [2]; mirtazapine sub-optimal dose 1 mg/kg ip and/or omega-3 0.72 g/kg/day, vs control) was “did not significantly change the time of immobility”. The body weight gain ([3]; mirtazapine 20 mg/kg and/or omega-3 0.72 g/kg, chronic) was “significantly reduced the body weight gain; also recorded: significant decrease in body weight”, the body weight gain ([3]; mirtazapine sub-optimal dose 1 mg/kg and/or omega-3 0.72 g/kg, 1 mg/kg) was “does not interfere with the weight gain” and the body weight gain ([3]; mirtazapine sub-optimal dose 1 mg/kg and/or omega-3 0.72 g/kg, listed as Mirtazapine, 1 mg/kg) was “did not produce any effect”. The “antidepressant effect in prior studies” value (rats [4]) was “not showing an antidepressant effect” and the “effect on the FST in prior studies” value (rats [4]) was “produce a more robust effect on the FST”.
